In ChEMBL document CHEMBL5036336, “Structure-Guided Optimization Provides a Series of TTK Protein Inhibitors with Potent Antitumor Activity” (J Med Chem, 2021):
In brackets after ≈: the same amount, converted by molar mass. Activity calls are given as the source filed them. No cut-off for these calls is given here.

Columns and labels:
Homo sapiens [1] = organism: Homo sapiens; test: Selectivity ratio of IC50 for inhibition of JNK1 (unknown origin) to IC50 for inhibition of TTK (unknown origin)
CAL-51 [2] = test: Antitumor activity against human TNBC PDX-CAL-51 cells xenografted in CB17-SCID mouse assessed as tumor growth inhibition at 25 to 80 mg/kg, iv administered once per week for 3 weeks; format: functional, organism-based; settings: dose 25-80 mg/kg
Homo sapiens [3] = organism: Homo sapiens; test: Selectivity ratio of IC50 for inhibition of LRRK2 G2019S mutant (unknown origin) to IC50 for inhibition of TTK (unknown origin)
[4] = target: Muscarinic acetylcholine receptor M3 (Homo sapiens) (UniProt P20309); test: Inhibition of muscarinic M3 receptor (unknown origin) at 10 uM relative to control
[5] = target: Mitogen-activated protein kinase 8 (Homo sapiens, UniProt P45983); test: Inhibition of JNK1 (unknown origin) at 3 uM by Z-lyte assay relative to control
[6] = Inhibition of KNL1 autophosphorylation at T943 residue in human CAL-51 cells measured after 1 hr by Western blot analysis; format: cell-based; settings: CAL-51, 1 h
CAL-51 [7] = test: Antiproliferative activity against human CAL-51 cells assessed as inhibition of cell proliferation measured after 3 days by Cell Titer-Glo luminescence based assay; format: functional; settings: CAL-51, 72 h
[8] = test system: Leucine-rich repeat serine/threonine-protein kinase 2 (Homo sapiens), Q5S007 [G2019S]; test: Inhibition of LRRK2 G2019S mutant (unknown origin) at 3 uM by ADAPTA assay relative to control
Leucine-rich repeat serine/threonine-protein kinase 2 (Homo sapiens), Q5S007 [G2019S], sequence (Q5S007 whole entry G2019S): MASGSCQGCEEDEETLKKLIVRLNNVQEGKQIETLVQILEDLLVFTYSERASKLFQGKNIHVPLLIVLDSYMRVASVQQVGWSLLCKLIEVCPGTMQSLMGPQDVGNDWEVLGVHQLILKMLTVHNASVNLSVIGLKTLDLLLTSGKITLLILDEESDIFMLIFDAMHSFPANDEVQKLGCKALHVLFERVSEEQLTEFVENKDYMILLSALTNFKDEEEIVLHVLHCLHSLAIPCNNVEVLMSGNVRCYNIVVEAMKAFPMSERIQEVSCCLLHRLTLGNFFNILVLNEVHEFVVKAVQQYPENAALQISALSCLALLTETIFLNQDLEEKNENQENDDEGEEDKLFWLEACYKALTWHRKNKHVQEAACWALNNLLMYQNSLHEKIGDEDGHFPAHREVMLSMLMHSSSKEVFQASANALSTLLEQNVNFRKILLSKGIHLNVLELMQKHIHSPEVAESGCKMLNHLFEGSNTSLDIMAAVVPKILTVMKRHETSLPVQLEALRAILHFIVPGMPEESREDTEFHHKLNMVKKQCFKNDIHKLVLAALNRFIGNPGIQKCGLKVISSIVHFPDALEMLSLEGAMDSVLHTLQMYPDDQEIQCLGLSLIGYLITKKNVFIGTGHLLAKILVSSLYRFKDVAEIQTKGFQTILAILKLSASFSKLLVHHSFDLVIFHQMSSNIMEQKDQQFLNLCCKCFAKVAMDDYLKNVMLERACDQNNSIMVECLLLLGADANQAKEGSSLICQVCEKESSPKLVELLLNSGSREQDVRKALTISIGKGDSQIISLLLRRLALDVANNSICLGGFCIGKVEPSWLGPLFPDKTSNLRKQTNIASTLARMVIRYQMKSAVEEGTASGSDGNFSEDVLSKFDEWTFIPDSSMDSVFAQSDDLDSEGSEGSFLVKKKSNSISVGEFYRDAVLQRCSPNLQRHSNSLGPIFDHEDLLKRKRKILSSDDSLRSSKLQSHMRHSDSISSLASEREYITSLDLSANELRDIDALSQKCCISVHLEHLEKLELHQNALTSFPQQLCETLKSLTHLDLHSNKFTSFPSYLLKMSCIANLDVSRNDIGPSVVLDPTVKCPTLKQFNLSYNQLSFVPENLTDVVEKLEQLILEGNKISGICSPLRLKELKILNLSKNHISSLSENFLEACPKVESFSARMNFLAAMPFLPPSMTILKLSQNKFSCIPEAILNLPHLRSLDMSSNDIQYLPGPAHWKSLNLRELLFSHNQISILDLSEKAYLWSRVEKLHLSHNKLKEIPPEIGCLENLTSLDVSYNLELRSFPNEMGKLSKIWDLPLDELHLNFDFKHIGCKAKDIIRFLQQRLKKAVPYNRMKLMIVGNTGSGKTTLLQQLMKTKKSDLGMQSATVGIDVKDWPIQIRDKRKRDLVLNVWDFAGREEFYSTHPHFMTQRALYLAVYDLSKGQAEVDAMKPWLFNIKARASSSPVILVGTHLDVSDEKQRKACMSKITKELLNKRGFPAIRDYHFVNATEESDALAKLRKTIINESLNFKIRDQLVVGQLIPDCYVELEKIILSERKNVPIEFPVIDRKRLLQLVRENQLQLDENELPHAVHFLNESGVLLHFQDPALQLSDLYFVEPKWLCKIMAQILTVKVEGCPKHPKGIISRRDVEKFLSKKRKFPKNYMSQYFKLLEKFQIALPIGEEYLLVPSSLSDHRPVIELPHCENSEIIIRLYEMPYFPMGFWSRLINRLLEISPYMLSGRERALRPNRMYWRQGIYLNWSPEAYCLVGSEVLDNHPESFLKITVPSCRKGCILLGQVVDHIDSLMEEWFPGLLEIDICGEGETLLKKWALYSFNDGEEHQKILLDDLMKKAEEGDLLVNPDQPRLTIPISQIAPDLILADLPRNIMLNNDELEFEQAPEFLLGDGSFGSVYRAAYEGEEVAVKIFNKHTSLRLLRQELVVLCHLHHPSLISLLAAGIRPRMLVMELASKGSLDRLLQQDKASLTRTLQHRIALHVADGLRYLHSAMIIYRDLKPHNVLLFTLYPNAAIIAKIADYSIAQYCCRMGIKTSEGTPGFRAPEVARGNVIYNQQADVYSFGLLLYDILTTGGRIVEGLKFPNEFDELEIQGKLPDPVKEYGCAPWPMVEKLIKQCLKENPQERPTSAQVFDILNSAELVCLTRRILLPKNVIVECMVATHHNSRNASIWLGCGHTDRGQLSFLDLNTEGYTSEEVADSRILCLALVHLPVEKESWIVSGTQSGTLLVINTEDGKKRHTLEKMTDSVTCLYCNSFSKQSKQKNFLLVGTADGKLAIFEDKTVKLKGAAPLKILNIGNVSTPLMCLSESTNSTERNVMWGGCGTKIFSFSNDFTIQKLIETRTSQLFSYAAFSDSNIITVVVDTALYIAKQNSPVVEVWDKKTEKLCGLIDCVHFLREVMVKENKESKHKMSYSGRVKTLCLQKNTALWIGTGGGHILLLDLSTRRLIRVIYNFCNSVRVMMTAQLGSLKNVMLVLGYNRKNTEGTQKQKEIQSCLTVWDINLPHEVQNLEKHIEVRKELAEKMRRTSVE

Homo sapiens [9] = organism: Homo sapiens; test: Selectivity ratio of IC50 for inhibition of TSSK1 (unknown origin) to IC50 for inhibition of TTK (unknown origin)
[10] = target: Leucine-rich repeat serine/threonine-protein kinase 2 (Homo sapiens, UniProt Q5S007, G2019S); test: Inhibition of LRRK2 G2019S mutant (unknown origin) by ADAPTA assay
Leucine-rich repeat serine/threonine-protein kinase 2 (Homo sapiens, UniProt Q5S007, G2019S), sequence (Q5S007 whole entry G2019S): as above

[11] = AUC in rat at 2 mg/kg, iv; format: ADME, organism-based; parameters: dose 2 mg/kg; settings: in vivo
[12] = target: MAP kinase-activated protein kinase 3 (Homo sapiens, UniProt Q16644); test: Inhibition of MAPKAPK3 (unknown origin) at 3 uM by Z-lyte assay relative to control
Homo sapiens [13] = organism: Homo sapiens; test: Selectivity ratio of IC50 for inhibition of JNK2 (unknown origin) to IC50 for inhibition of TTK (unknown origin)
[14] = target: Muscarinic acetylcholine receptor M1 (Homo sapiens) (UniProt P11229); test: Inhibition of muscarinic M1 receptor (unknown origin) at 10 uM relative to control
Muscarinic acetylcholine receptor M1 (Homo sapiens), sequence (P11229 whole entry): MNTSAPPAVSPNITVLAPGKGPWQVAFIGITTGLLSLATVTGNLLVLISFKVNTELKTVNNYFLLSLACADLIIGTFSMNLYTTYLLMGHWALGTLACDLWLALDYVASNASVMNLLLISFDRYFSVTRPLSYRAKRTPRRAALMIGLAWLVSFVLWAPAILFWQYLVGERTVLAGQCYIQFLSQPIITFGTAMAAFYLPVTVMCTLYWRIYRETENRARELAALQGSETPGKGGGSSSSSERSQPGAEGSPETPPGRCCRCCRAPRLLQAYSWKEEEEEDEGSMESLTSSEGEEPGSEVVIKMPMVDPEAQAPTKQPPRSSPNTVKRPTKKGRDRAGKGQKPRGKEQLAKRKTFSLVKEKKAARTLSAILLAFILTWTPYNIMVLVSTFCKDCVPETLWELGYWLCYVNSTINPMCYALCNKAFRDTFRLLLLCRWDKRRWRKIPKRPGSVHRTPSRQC

[15] = Mean residence time in rat at 2 mg/kg, iv; format: ADME, organism-based; settings: in vivo
[16] = target: Testis-specific serine/threonine-protein kinase 1 (Homo sapiens, UniProt Q9BXA7); test: Inhibition of TSSK1 (unknown origin) by Z-lyte assay
Homo sapiens [17] = organism: Homo sapiens; test: Inhibition of Bombesin receptor (unknown origin) at 10 uM relative to control
[18] = Plasma protein binding in mouse; format: ADME, cell-free; settings: read-out: PPB
[19] = Clearance in mouse at 2 mg/kg, iv; format: ADME, organism-based; settings: in vivo
[20] = target: Voltage-gated inwardly rectifying potassium channel KCNH2 (Homo sapiens, UniProt Q12809); test: Inhibition of hERG
[21] = target: Mitogen-activated protein kinase 9 (Homo sapiens, UniProt P45984); test: Inhibition of JNK2 (unknown origin) by Z-lyte assay
Mitogen-activated protein kinase 9, sequence (P45984 whole entry): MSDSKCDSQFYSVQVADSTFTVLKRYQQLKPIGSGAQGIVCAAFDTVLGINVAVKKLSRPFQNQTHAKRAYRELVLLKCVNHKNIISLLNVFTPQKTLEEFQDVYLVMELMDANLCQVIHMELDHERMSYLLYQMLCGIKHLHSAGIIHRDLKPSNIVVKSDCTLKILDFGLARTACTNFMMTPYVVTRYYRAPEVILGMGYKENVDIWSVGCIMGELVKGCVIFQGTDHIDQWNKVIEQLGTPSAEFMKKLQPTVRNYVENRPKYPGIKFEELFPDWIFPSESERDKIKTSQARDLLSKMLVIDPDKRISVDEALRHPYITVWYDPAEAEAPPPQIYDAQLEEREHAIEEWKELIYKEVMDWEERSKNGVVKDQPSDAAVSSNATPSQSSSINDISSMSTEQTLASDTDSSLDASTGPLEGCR

Cytochrome P450 3A4 = Cytochrome P450 3A4 (Homo sapiens, UniProt P08684); test: Inhibition of CYP3A4 in human liver microsomes using […] as substrate incubated for 5 mins in presence of NADPH by LC-MS/MS analysis; format: ADME
Cytochrome P450 3A4, sequence (P08684 whole entry): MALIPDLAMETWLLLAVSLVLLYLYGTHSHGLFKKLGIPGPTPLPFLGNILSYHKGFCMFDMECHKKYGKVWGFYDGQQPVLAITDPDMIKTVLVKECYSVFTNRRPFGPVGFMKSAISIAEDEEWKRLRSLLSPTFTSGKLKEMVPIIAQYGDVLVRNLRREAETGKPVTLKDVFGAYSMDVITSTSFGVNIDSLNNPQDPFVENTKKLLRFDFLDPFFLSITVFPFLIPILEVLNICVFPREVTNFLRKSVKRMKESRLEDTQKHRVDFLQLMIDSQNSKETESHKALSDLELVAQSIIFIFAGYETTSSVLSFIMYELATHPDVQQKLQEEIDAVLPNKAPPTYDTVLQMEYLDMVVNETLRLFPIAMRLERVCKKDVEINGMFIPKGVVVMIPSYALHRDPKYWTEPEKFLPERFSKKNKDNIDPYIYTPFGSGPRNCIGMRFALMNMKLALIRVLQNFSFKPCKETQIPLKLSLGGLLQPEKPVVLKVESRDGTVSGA

[22] = Clearance in rat at 2 mg/kg, iv; format: ADME, organism-based; settings: in vivo
[23] = Mean residence time in mouse at 2 mg/kg, iv; format: ADME, organism-based; settings: in vivo
[24] = target: T1, Proto-oncogene tyrosine-protein kinase Src (Homo sapiens, UniProt P12931); test: Inhibition of SRC N1 (unknown origin) at 3 uM by Z-lyte assay relative to control
T1 sequence (P12931 2-536 limits assumed): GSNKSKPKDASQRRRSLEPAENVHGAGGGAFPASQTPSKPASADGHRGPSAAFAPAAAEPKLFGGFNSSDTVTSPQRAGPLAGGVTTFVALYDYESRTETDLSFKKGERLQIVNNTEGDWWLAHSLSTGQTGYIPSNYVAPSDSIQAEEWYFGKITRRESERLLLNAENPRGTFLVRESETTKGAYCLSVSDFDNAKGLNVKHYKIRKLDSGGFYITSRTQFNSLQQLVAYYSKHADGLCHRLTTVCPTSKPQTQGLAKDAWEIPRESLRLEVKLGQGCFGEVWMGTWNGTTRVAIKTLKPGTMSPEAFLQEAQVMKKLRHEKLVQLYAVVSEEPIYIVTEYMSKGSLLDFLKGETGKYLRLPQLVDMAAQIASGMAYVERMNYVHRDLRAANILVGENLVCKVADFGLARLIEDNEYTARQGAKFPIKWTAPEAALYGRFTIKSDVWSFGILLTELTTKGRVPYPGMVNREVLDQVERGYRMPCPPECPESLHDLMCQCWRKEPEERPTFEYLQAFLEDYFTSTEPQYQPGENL

[25] = target: Leucine-rich repeat serine/threonine-protein kinase 2 (Homo sapiens, UniProt Q5S007); test: Inhibition of LRRK2 (unknown origin) at 3 uM by ADAPTA assay relative to control
Leucine-rich repeat serine/threonine-protein kinase 2 (Homo sapiens, UniProt Q5S007), sequence (Q5S007 whole entry): as the sequence (Q5S007 whole entry G2019S) above, with S2019G counted along it

Homo sapiens [26] = organism: Homo sapiens; test: Selectivity ratio of IC50 for inhibition of TSSK2 (unknown origin) to IC50 for inhibition of TTK (unknown origin)
[27] = target: Testis-specific serine/threonine-protein kinase 1 (Homo sapiens) (UniProt Q9BXA7); test: Inhibition of TSSK1 (unknown origin) at 3 uM by Z-lyte assay relative to control
[28] = target: T2, Serine/threonine-protein kinase Chk2 (Homo sapiens, UniProt O96017); test: Inhibition of CHK2 (unknown origin) at 3 uM by Z-lyte assay relative to control
T2 sequence (O96017 whole entry): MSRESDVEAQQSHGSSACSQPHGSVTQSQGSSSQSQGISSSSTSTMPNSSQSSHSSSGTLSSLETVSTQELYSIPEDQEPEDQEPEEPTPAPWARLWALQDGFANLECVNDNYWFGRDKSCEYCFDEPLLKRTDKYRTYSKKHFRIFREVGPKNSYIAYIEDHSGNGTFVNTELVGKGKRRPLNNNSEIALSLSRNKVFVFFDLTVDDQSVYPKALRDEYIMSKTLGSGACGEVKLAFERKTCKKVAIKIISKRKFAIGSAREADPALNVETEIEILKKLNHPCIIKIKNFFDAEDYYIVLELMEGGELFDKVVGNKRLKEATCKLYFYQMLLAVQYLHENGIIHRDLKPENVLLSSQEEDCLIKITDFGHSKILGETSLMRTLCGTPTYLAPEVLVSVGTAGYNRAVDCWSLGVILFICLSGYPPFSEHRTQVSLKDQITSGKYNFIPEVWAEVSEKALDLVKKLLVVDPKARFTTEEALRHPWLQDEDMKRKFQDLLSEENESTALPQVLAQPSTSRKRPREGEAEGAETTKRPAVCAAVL

[29] = Toxicity in CB17-SCID mouse xenografted with human TNBC PDX-CAL-51 cells assessed as body weight loss at 80 mg/kg, iv administered once per week for 3 weeks; format: organism-based; settings: in vivo, 504 h
[30] = target: Testis-specific serine/threonine-protein kinase 2 (Homo sapiens) (UniProt Q96PF2); test: Inhibition of TSSK2 (unknown origin) at 3 uM by Z-lyte assay relative to control
[31] = Kinetic solubility of compound in PBS at pH 7.4 at 200 uM incubated for 24 hrs by UPLC/MS analysis; format: physicochemical; settings: read-out: Kinetic_solubility
[32] = target: T1, Proto-oncogene tyrosine-protein kinase Src; test: Inhibition of SRC N1 (unknown origin) by Z-lyte assay
[33] = target: T2, Serine/threonine-protein kinase Chk2; test: Inhibition of CHK2 (unknown origin) by Z-lyte assay

## CCc1cccc(CC)c1N1CCn2cc(-c3nc(Nc4ccc(N5CCC(C(=O)N6CC7(CN(C)C7)C6)CC5)cc4OC)nc4[nH]ccc34)cc2C1=O
Homo sapiens [1]
  Ratio IC50: 64
CAL-51 [2]
  Activity: Active
Homo sapiens [3]
  Ratio IC50: 76.3
[4]
  inhibition: 80%
[5]
  inhibition: > 80%
[6]
  IC50: 48 nM
CAL-51 [7]
  IC50: 16 nM
[8]
  inhibition: > 80%
Homo sapiens [9]
  Ratio IC50: 11.7
[10]
  IC50: 229 nM
[11]
  AUC: 18.2 µM·h
[12]
  inhibition: > 80%
Homo sapiens [13]
  Ratio IC50: 201
[14]
  inhibition: 80%
[15]
  MRT: 4.3 h
[16]
  IC50: 35 nM
Homo sapiens [17]
  inhibition: 80%
[18]
  fraction unbound: < 0.01
[19]
  clearance: 8.8 mL/min/kg
[20]
  IC50: > 30000 nM
[21]
  IC50: 602 nM
Cytochrome P450 3A4
  IC50: > 5000 nM
[22]
  clearance: 2.8 mL/min/kg
[23]
  MRT: 0.98 h
[24]
  inhibition: > 80%
[25]
  inhibition: > 80%
Homo sapiens [26]
  Ratio IC50: 315
[27]
  inhibition: > 80%
[28]
  inhibition: > 80%
[29]
  Activity: Non-Toxic
[30]
  inhibition: > 80%
[31]
  solubility kinetic at 24 h, 200 µM: 180 µM (≈ 131 µg/mL)
[32]
  IC50: 1300 nM
[33]
  IC50: 545 nM
